Structures can show the parent of a compound that is named as a salt. Starred links: 1 amine or outer side, 2 acyl side, 3 side chain; linkers in the order of their positions; H or OH if unused. Positions of bridges follow the written chain, without caps; N, C: chain ends. Non-standard residues stand in square brackets, D forms with d. Residues, ends and D or L forms follow the SMILES beside them. *: point of attachment. Trp(7-(3-AcNH-Ph)) = CC(=O)Nc1cccc(-c2cccc3c(C[C@H](N)C(=O)O)c[nH]c23)c1; X33 = C[N+](C)(C)CCCCc1cn(-c2ccc(C[C@H](N[*:1])C(=O)[*:2])cc2)nn1; Me3N+(CH2)2O(CH2)2O(CH2)2CO = C[N+](C)(C)CCOCCOCCC(=O)*; Phe(4-guanidino) = N=C(N)Nc1ccc(C[C@H](N)C(=O)O)cc1; CH2CH2OCH2CH2OCH2CH2NMe3+ = C[N+](C)(C)CCOCCOCC*; Trp(7-Me) = Cc1cccc2c(C[C@H](N)C(=O)O)c[nH]c12; X15 = CC(=O)N(C)C[C@H](N[*:1])C(=O)[*:2]; 3Pal(5-Me) = Cc1cncc(C[C@H](N)C(=O)O)c1; 2Nal = N[C@@H](Cc1ccc2ccccc2c1)C(=O)O; AEF = NCCOc1ccc(C[C@H](N)C(=O)O)cc1; 3Pal = N[C@@H](Cc1cccnc1)C(=O)O; Lys(Me) = CNCCCC[C@H](N)C(=O)O; Pen = CC(C)(S)[C@H](N)C(=O)O; Thp = NC1(C(=O)O)CCOCC1; X3 = C[N+](C)(C)CCCCC*; Tfa = O=C(C(F)(F)F)*; NHtBu = CC(C)(C)N*; Sar = CNCC(=O)O
Tests used:
[1] = Exposed Polar Surface Area (EPSA); assay type: physicochemical; conditions: SFC on Chirex 3014 column; sample 1 mM DMSO stock; read-out: EPSA
Summary of the method: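 Polarity descriptor in Å² derived from retention time using 8 calibration standards re-run every 20 compounds. Duplicate injections of 1 mM DMSO stock; linear 5–60% modifier gradient (20 mM ammonium formate in MeOH) with CO2 at 4 mL/min, 35 °C, on a Chirex 3014 column.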

IL-23R = target: T1, IL-23R (Homo sapiens, UniProt Q5VWK5); test: IL23R Reporter Assay; assay type: cell-based; conditions: HEK293 cells containing IL-23R, IL-12RP1 and STAT-inducible firefly luciferase reporter; 10 ng/mL IL-23 (EC90); 5 h at 37° C.; read-out: IL23R Reporter Assay
T1 construct: host or cells: HEK293
T1 sequence (Q5VWK5 24-629): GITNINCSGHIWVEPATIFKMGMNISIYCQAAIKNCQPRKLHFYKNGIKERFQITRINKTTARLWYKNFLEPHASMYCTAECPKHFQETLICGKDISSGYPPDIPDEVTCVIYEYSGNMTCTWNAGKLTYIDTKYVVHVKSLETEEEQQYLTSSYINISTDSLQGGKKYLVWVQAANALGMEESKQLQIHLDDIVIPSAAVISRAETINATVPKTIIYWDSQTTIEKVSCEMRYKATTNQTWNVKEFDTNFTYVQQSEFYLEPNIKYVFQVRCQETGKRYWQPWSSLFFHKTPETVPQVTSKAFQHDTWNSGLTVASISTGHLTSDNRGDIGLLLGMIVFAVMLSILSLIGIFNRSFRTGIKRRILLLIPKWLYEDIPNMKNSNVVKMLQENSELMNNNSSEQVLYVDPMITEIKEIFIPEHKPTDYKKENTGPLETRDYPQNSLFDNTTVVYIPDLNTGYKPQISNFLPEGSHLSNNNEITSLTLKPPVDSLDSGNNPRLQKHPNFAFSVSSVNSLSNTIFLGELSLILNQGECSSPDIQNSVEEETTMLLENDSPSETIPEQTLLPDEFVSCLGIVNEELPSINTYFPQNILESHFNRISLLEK

SMILES	EPSA [1] [A^2]	IC50 (IL-23R) [nM]
CC(=O)NCCCC[C@@H]1NC(=O)[C@H](Cc2c[nH]c3c(C)cccc23)NC(=O)[C@H]([C@@H](C)O)NC(=O)[C@H](CC(N)=O)NC(=O)[C@@H](NC(=O)C(F)(F)F)C(C)(C)SSC(C)(C)[C@@H](C(=O)N[C@@H](Cc2ccc(OCCN)cc2)C(=O)N[C@@H](Cc2ccc3ccccc3c2)C(=O)NC2(C(=O)N[C@@H](CCCCNC(C)=O)C(=O)N[C@@H](CC(N)=O)C(=O)N[C@@H](Cc3cccnc3)C(=O)N(C)C)CCOCC2)NC1=O [compound 63] (Tfa-[Pen]NT[Trp(7-Me)]K(Ac)[Pen][AEF][2Nal][Thp]K(Ac)N[3Pal]-NMe2; disulfide 1-6 (inferred))	157	25
CC(=O)N(C)CCCC[C@@H]1NC(=O)[C@H](Cc2c[nH]c3c(C)cccc23)NC(=O)[C@H]([C@@H](C)O)NC(=O)[C@H](CC(=O)N(C)C)NC(=O)[C@@H](NC(=O)CCOCCOCC[N+](C)(C)C)C(C)(C)SSC(C)(C)[C@@H](C(=O)N[C@@H](Cc2ccc(NC(=N)N)cc2)C(=O)N[C@@H](Cc2ccc3ccccc3c2)C(=O)NC2(C(=O)N[C@@H](CCCCN(C)C(C)=O)C(=O)N[C@@H](CC(N)=O)C(=O)N[C@@H](Cc3cccnc3)C(=O)N(C)CC(=O)N(C)C)CCOCC2)NC1=O [compound 304, cPEG3aCO-Pen(3)-N(N(Me)2)-T-7MeW-K(NMeAc)-Pen(3)-F(4G)-2Nal-THP-K(NMeAc)-N-3Pya-Sar-CON(Me)2] ({Me3N+(CH2)2O(CH2)2O(CH2)2CO}-[Pen]D(NMe2)T[Trp(7-Me)][Lys(Me)](Ac)[Pen][Phe(4-guanidino)][2Nal][Thp][Lys(Me)](Ac)N[3Pal][Sar]-NMe2; disulfide 1-6)	164	1.4
CC(=O)NCCCC[C@H](NC(=O)C1(NC(=O)[C@H](Cc2ccc3ccccc3c2)NC(=O)[C@H](Cc2ccc(OCCN)cc2)NC(=O)[C@H]2NC(=O)[C@H](CCC(=O)NC(C)(C)C)NC(=O)[C@H](Cc3c[nH]c4c(C)cccc34)NC(=O)[C@H]([C@@H](C)O)NC(=O)[C@H](CC(N)=O)NC(=O)[C@@H](NC(=O)C(F)(F)F)C(C)(C)SSC2(C)C)CCOCC1)C(=O)N[C@@H](CC(N)=O)C(=O)N[C@@H](Cc1cccnc1)C(=O)N(C)CC(N)=O [compound 60] (Tfa-[Pen]NT[Trp(7-Me)]E(NHtBu)[Pen][AEF][2Nal][Thp]K(Ac)N[3Pal][Sar]-NH2; disulfide 1-6 (inferred))	157	3.5
CC(=O)Nc1cccc(-c2cccc3c(C[C@@H]4NC(=O)[C@H]([C@@H](C)O)NC(=O)[C@H](CC(=O)N(C)C)NC(=O)[C@@H](NC(=O)CCOCCOCC[N+](C)(C)C)C(C)(C)SSC(C)(C)[C@@H](C(=O)N[C@@H](Cc5ccc(OCCCCC[N+](C)(C)C)cc5)C(=O)N[C@@H](Cc5ccc6ccccc6c5)C(=O)NC5(C(=O)N[C@@H](CCCCN(C)C(C)=O)C(=O)N[C@@H](CC(N)=O)C(=O)N[C@@H](Cc6cccnc6)C(=O)N(C)CC(=O)N(C)C)CCOCC5)NC(=O)[C@H](CCCCN(C)C(C)=O)NC4=O)c[nH]c23)c1 [compound 294, cPEG3aCO-Pen(3)-N(N(me)2)-T-7(3NAcPh)W-K(NMeAc)-Pen(3)-TMAPF-2Nal-THP-K(NMeAc)-N-3Pya-Sar-CON(Me)2] ({Me3N+(CH2)2O(CH2)2O(CH2)2CO}-[Pen]D(NMe2)T[Trp(7-(3-AcNH-Ph))][Lys(Me)](Ac)[Pen]Y(X3)[2Nal][Thp][Lys(Me)](Ac)N[3Pal][Sar]-NMe2; disulfide 1-6 (inferred))	157	1.2

Next, values leading:

EPSA [1] [A^2]	IC50 (IL-23R) [nM]	SMILES
185	4.5	CC(=O)NCCCC[C@@H]1NC(=O)[C@H](Cc2c[nH]c3c(C)cccc23)NC(=O)[C@H]([C@@H](C)O)NC(=O)[C@H](CC(N)=O)NC(=O)[C@@H](NC(=O)C(COCCOCC[N+](C)(C)C)NC(C)=O)C(C)(C)SSC(C)(C)[C@@H](C(=O)N[C@@H](Cc2ccc(OCCN)cc2)C(=O)N[C@@H](Cc2ccc3ccccc3c2)C(=O)NC2(C(=O)N[C@@H](CCC(=O)O)C(=O)N[C@@H](CC(N)=O)C(=O)N[C@@H](Cc3cccnc3)C(=O)N(C)CC(N)=O)CCOCC2)NC1=O (mixture of isomers) [compound 553, MeCO-APEG2Ser(RS)-Pen(3)-N-T-7MeW-K(Ac)-Pen(3)-AEF-2Nal-THP-E-N-3Pya-Sar-CONH2]
154	1.2	CC(=O)N(C)CCCC[C@@H]1NC(=O)[C@H](Cc2c[nH]c3c(C)cccc23)NC(=O)[C@H]([C@@H](C)O)NC(=O)[C@H](CC(=O)N(C)C)NC(=O)[C@@H](NC(=O)CCOCCOCC[N+](C)(C)C)C(C)(C)SSC(C)(C)[C@@H](C(=O)N[C@@H](Cc2ccc(OCCOCCOCC[N+](C)(C)C)cc2)C(=O)N[C@@H](Cc2ccc3ccccc3c2)C(=O)NC2(C(=O)N[C@@H](CC(C)C)C(=O)N[C@@H](CC(N)=O)C(=O)N[C@@H](Cc3cccnc3)C(=O)N(C)CC(=O)N(C)C)CCOCC2)NC1=O [compound 467, cPEG3aCO-Pen(3)-N(N(Me)2)-T-7MeW-K(NMeAc)-Pen(3)-APEG3F-2Nal-THP-L-N-3Pya-Sar-CON(Me)2] ({Me3N+(CH2)2O(CH2)2O(CH2)2CO}-[Pen]D(NMe2)T[Trp(7-Me)][Lys(Me)](Ac)[Pen]Y(CH2CH2OCH2CH2OCH2CH2NMe3+)[2Nal][Thp]LN[3Pal][Sar]-NMe2; disulfide 1-6)
179	2	CC(=O)NCCCC[C@@H]1NC(=O)[C@H](Cc2c[nH]c3c(C)cccc23)NC(=O)[C@H]([C@@H](C)O)NC(=O)[C@H](CC(N)=O)NC(=O)[C@@H](NC(=O)[C@@H](CCCNC(=N)N)NC(C)=O)C(C)(C)SSC(C)(C)[C@@H](C(=O)N[C@@H](Cc2ccc(OCCCCC[N+](C)(C)C)cc2)C(=O)N[C@@H](Cc2ccc3ccccc3c2)C(=O)NC2(C(=O)N[C@@H](CCC(=O)O)C(=O)N[C@@H](CC(N)=O)C(=O)N[C@@H](Cc3cncc(C)c3)C(=O)N(C)CC(N)=O)CCOCC2)NC1=O [compound 543, MeCO-r-Pen(3)-N-T-7MeW-K(Ac)-Pen(3)-TMAPF-2Nal-THP-E-N-5MePyridinAla-Sar-CONH2] (Ac-[dR][Pen]NT[Trp(7-Me)]K(Ac)[Pen]Y(X3)[2Nal][Thp]EN[3Pal(5-Me)][Sar]-NH2; disulfide 2-7)
156	3	CC(=O)N(C)CCCC[C@@H]1NC(=O)[C@H](Cc2c[nH]c3c(C)cccc23)NC(=O)[C@H]([C@@H](C)O)NC(=O)[C@H](CC(=O)N(C)C)NC(=O)[C@@H](NC(=O)CCOCCOCC[N+](C)(C)C)C(C)(C)SSC(C)(C)[C@@H](C(=O)N[C@@H](Cc2ccc(OCCOCCOCC[N+](C)(C)C)cc2)C(=O)N[C@@H](Cc2ccc3ccccc3c2)C(=O)NC2(C(=O)N[C@@H](CN(C)C(C)=O)C(=O)N[C@@H](CC(N)=O)C(=O)N[C@@H](Cc3cccnc3)C(=O)N(C)CC(=O)N(C)C)CCOCC2)NC1=O [compound 419, cPEG3aCO-Pen(3)-N(N(Me)2)-T-7MeW-K(NMeAc)-Pen(3)-APEG3F-2Nal-THP-Dap(NMeAc)-N-3Pya-Sar-CON(Me)2] ({Me3N+(CH2)2O(CH2)2O(CH2)2CO}-[Pen]D(NMe2)T[Trp(7-Me)][Lys(Me)](Ac)[Pen]Y(CH2CH2OCH2CH2OCH2CH2NMe3+)[2Nal][Thp][X15]N[3Pal][Sar]-NMe2; disulfide 1-6)
165	2.6	CC(=O)NCCCC[C@@H]1NC(=O)[C@H](Cc2c[nH]c3c(C)cccc23)NC(=O)[C@H]([C@@H](C)O)NC(=O)[C@H](CC(N)=O)NC(=O)[C@@H](NC(=O)CCOCCOCC[N+](C)(C)C)C(C)(C)SSC(C)(C)[C@@H](C(=O)N[C@@H](Cc2ccc(-n3cc(CCCC[N+](C)(C)C)nn3)cc2)C(=O)N[C@@H](Cc2ccc3ccccc3c2)C(=O)NC2(C(=O)N[C@@H](CCCCNC(C)=O)C(=O)N[C@@H](CC(N)=O)C(=O)N[C@@H](Cc3cccnc3)C(=O)N(C)CC(N)=O)CCOCC2)NC1=O [compound 424, cPEG3aCO-Pen(3)-N-T-7MeW-K(Ac)-Pen(3)-F(4TzlTMA4)-2Nal-THP-K(Ac)-N-3Pya-Sar-CONH2] ({Me3N+(CH2)2O(CH2)2O(CH2)2CO}-[Pen]NT[Trp(7-Me)]K(Ac)[Pen][X33][2Nal][Thp]K(Ac)N[3Pal][Sar]-NH2; disulfide 1-6)
154	3.4	CNC(=O)C[C@H](NC(=O)[C@H](CCCCN(C)C(C)=O)NC(=O)C1(NC(=O)[C@H](Cc2ccc3ccccc3c2)NC(=O)[C@H](Cc2ccc(OCCCCC[N+](C)(C)C)cc2)NC(=O)[C@H]2NC(=O)[C@H](CCCCN(C)C(C)=O)NC(=O)[C@H](Cc3c[nH]c4c(C)cccc34)NC(=O)[C@H]([C@@H](C)O)NC(=O)[C@H](CC(=O)N(C)C)NC(=O)[C@@H](NC(=O)CCOCCOCC[N+](C)(C)C)C(C)(C)SSC2(C)C)CCOCC1)C(=O)N[C@@H](Cc1cccnc1)C(=O)N(C)CC(=O)N(C)C [compound 560, cPEG3aCO-Pen(3)-N(N(Me)2)-T-7MeW-K(NMeAc)-Pen(3)-TMAPF-2Nal-THP-k(NMeAc)-N(NMe)-3Pya-Sar-CON(Me)2] ({Me3N+(CH2)2O(CH2)2O(CH2)2CO}-[Pen]D(NMe2)T[Trp(7-Me)][Lys(Me)](Ac)[Pen]Y(X3)[2Nal][Thp][Lys(Me)](Ac)D(NHMe)[3Pal][Sar]-NMe2; disulfide 1-6)

From patent US20260022143A1, “Cyclic Peptide Inhibitors of IL-23” (JANSSEN PHARMACEUTICA NV, priority 2022, published 2026)
